Laboratory results published in paper PMC9578445, “Association of respiratory failure with inhibition of NaV1.6 in the phrenic nerve” (Channels, 2022).
Like-named read-outs stand apart in the source and are kept apart here.

Columns and labels:
Human NaV1.4 = target: T1, Human NaV1.4 (Homo sapiens, UniProt P35499); test: PatchXpress automated patch clamp, hyperpolarized-state protocol; type: cell-based; details: HEK 293 cells
T1 construct: expressed in transfected cells
Method: (§1) Sodium currents were recorded from recombinant Human Embryonic Kidney 293 cell lines stably overexpressing the respective sodium channel type (NaV1.2, 1.5, 1.4, 1.6, 1.7). Recording solutions were comprised of the following (in mM): Internal solution: 30 CsCl, 5 HEPES, 10 EGTA, 120 CsF, 5 NaF, 2 MgCl2, pH = 7.3 with CsOH; External solution 1: 40 NaCl, 120 NMDG, 1 KCl, 0.5 MgCl2, 5 HEPES, 2.7 CaCl2, pH to 7.3 with NaOH, used for NaV1.5 recordings; External solution 2: 150 NaCl, 5 KCl, 2 CaCl2, 1 MgCl2, 10 HEPES, 12 Dextrose, pH 7.3 with NaOH, used for NaV1.7, 1.6, 1.4, and 1.2 recordings.
(§2) Whole-cell currents were recorded from cells stably expressing NaV channels using the PatchXpress 7000A automated patch clamp platform (Molecular Devices, LLC; Sunnyvale, CA). A portable air-conditioning unit was installed on the PatchXpress instruments to maintain the temperature of the headstage at 21°C. Cells were voltage clamped at −60 mV for cell detection and sealing. At the start of each recording, a voltage curve and an inactivation curve was run for each cell to determine the voltage at which 50% of the channels reside in the inactivated state (V0.5 inact). The voltage curve was used to determine if the cell was adequately clamped; cells with currents larger than 10nA or with space clamp issues were not used further.
(§3) NaV1.7, NaV1.6, NaV1.4: Compound potency was measured in a hyperpolarized-state protocol where the holding potential for each cell was set to V0.5inact – 20 mV. A pulse train consisting of 7 consecutive double pulses, 8 second hypepolarizing prepulse to −120 mV followed by a test pulse to −10 mV was applied at a frequency of 0.1 Hz. First, vehicle (0.3% DMSO) was added to establish a baseline measurement. Once baseline was established, test compounds were added. Cells were exposed to compound for 5 minutes at 20 mV negative to V0.5inact then exposed to the same hyperpolarized voltage protocol. (no pulsing during compound incubation). A washout was performed to measure recovery of the sodium currents from inhibition.
(§4) Recordings were included for analysis when current amplitude reached steady-state in vehicle, compound inhibition was concentration-dependent and currents recovered during wash-out periods. Raw data from PatchXpress experiments were retrieved from the database and analyzed using the DataXpress 2 software (Molecular Devices).
(§5) At least 3 concentrations (3–9 replicates per concentration) were tested and at least one concentration had to cause 20–80% current inhibition.

Human NaV1.7 = target: T2, Human NaV1.7 (Homo sapiens, UniProt Q15858); test: as above; type: cell-based; details: HEK 293 cells
T2 construct: expressed in transfected cells
Method: as §1, §2, §3, §4, §5

Rat NaV1.6 = target: T3, Rat NaV1.6 (Rattus norvegicus, UniProt O88420); test: as above; type: cell-based; details: for IC50: HEK cells, hyperpolarized protocol
T3 construct: expressed in transfected cells; host or cells: HEK cells
Method: as §1, §2, §3, §4, §5

[1] = Plasma exposure in phrenic nerve activity assay; type: in vivo; details: rat; for concentration at 30 min / concentration at 15 min: CD, plasma, intravenous
Excerpt: (§6) For in vivo CVR and phrenic nerve activity studies, all raw signals were amplified via general purposed biological amplifier (filter settings DC – 3-5 KhZ) then digitized, calibrated and collected at a minimum of 500 Hz (1000 Hz for ECG and 2000 Hz for cardiac electrograms, and 10 KHz for phrenic nerve activity) using Notocord-HEM data acquisition and analysis software. The raw signal was filtered following acquisition with a bandpass filter set to 200–800 Hz). Vehicle (100% dimethylformamdide, DMF) or compound formulated in the vehicle was administered as a 30-minute IV infusion at 0.0167 μL/g body weight/min. Doses were selected to achieve unbound plasma concentrations in range of measured Nav1.6 IC50 values when infused at 0.0167uL/g body weight/min based on measured rat clearance, plasma protein binding and Nav1.6 IC50. Exposure in rats was determined in separate pharmacokinetics experiments where compounds were administered via IV dosing.

[2] = Permeability (Papp, passive diffusion); type: in vitro ADME
Human NaV1.5 = target: T4, Human NaV1.5 (Homo sapiens, UniProt Q14524); test: PatchXpress automated patch clamp, depolarized-state protocol; type: cell-based; details: HEK 293 cells
T4 construct: expressed in transfected cells
Method: as §1, §2
NaV1.5: Compound potency was measured in a depolarized-state protocol where the holding potential for each cell was set to V0.5inact – 20 mV. The pulse protocol consisted of an 8 sec prepulse to V0.5inact + 7 mV, followed by a 2 ms hyperpolarization to −120 mV and a 10 ms test pulse to −10 mV. First, vehicle (0.3% DMSO) was added to establish a baseline measurement. Once baseline was established, a test compound was added. Cells were exposed to compound for 5 minutes at V0.5inact – 20 mV. Compound washout was performed to measure the recovery of the sodium currents from inhibition.
as §4, §5

phrenic nerve = test: Rat phrenic nerve firing assay; details: rat in vivo, measured at 30 minutes
Method: To determine direct effects on phrenic nerve activity, male CD rats were anesthetized and instrumented as described above for the CV/R assay. In addition, an incision was made in the ventral neck area and the right phrenic nerve identified anatomically and isolated via blunt dissection. The phrenic nerve was placed over a high impedance bipolar hook electrode and the nerve covered with mineral oil to prevent desiccation. Animals were mechanically ventilated via a tracheotomy (~10 mL/kg, 40–70 breaths/min, titrated individually to stabilize phrenic activity) following neuromuscular block (pancuronium 0.5–1 mg/kg, iv) and bilateral vagotomy to better define test agent effects on phrenic nerve activity. Anesthesia was verified repeatedly following pancuronium administration by testing the BP/HR response to noxious stimuli. Spontaneous electrical activity was continuously recorded and then later rectified and averaged to calculate frequency, width, peak height of bursts, and magnitude. Magnitude of the activity was calculated by taking the absolute value of the raw signal and then averaging that signal over 50 ms increments. The resulting average signal was then converted to magnitude by subtracting the […] for each phrenic burst complex. The resulting magnitude values were then averaged over 1 minute increments to result in the graphs shown. Figure S1 in the Supplemental Information illustrates this analytical procedure.
as §6

[3] = 30 mg/kg, read-out: Total [plasma]
[4] = 30 mg/kg, read-out: Unbound [plasma]
[5] = 60 mg/kg, read-out: Total [plasma]
[6] = 60 mg/kg, read-out: Unbound [plasma]

T4 sequence (Q14524 whole entry): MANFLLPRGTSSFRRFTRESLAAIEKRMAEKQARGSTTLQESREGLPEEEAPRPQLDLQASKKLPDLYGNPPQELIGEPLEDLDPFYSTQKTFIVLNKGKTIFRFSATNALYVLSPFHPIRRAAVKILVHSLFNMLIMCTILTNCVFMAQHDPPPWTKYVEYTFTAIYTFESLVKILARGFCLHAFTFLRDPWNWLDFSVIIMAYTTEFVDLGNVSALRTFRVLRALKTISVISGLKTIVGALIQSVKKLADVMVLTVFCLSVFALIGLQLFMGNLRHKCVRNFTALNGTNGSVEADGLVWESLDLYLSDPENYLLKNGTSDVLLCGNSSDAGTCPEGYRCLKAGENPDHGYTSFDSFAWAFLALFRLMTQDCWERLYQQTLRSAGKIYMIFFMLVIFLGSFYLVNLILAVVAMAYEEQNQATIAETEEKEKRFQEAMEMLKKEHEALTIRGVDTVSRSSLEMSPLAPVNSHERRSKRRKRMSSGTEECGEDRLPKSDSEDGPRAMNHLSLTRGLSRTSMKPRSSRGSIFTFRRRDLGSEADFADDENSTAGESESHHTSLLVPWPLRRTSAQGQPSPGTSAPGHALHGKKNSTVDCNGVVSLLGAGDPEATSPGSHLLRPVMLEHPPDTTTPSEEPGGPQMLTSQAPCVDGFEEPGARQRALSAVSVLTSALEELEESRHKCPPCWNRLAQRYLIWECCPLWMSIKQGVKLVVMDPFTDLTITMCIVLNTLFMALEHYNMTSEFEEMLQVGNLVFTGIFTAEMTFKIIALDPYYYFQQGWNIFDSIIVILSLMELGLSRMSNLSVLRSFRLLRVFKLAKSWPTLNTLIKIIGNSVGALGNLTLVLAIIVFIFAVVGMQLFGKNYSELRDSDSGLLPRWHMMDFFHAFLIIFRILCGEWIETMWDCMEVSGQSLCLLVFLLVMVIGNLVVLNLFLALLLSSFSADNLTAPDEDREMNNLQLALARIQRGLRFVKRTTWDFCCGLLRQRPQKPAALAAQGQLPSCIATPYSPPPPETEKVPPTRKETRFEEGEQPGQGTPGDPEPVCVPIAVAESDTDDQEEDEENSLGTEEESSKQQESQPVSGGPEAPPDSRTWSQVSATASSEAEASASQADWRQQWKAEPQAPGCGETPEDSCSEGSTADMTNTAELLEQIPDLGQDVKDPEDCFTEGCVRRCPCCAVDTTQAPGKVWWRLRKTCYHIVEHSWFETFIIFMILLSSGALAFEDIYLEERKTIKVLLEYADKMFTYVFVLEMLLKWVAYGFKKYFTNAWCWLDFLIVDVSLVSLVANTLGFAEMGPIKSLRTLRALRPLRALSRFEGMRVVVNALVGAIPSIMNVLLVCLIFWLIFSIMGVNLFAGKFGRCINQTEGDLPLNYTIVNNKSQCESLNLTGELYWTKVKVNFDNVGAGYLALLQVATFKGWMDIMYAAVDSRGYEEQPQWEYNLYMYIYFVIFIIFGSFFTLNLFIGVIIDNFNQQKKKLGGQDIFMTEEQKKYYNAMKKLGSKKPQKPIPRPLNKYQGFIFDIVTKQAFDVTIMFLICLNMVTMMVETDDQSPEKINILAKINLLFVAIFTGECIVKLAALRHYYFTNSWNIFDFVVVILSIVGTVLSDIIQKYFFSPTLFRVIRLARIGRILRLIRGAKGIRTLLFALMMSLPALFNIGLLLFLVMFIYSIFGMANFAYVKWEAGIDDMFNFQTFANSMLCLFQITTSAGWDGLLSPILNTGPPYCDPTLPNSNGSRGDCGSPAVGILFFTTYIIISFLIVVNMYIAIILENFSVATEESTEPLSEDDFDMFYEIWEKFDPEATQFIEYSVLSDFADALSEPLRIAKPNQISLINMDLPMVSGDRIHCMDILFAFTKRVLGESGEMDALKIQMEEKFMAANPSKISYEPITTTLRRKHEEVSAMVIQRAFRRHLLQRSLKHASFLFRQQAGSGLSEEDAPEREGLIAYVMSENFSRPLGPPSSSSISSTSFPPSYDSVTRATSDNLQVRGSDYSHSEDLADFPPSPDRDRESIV
T1 sequence (P35499 whole entry): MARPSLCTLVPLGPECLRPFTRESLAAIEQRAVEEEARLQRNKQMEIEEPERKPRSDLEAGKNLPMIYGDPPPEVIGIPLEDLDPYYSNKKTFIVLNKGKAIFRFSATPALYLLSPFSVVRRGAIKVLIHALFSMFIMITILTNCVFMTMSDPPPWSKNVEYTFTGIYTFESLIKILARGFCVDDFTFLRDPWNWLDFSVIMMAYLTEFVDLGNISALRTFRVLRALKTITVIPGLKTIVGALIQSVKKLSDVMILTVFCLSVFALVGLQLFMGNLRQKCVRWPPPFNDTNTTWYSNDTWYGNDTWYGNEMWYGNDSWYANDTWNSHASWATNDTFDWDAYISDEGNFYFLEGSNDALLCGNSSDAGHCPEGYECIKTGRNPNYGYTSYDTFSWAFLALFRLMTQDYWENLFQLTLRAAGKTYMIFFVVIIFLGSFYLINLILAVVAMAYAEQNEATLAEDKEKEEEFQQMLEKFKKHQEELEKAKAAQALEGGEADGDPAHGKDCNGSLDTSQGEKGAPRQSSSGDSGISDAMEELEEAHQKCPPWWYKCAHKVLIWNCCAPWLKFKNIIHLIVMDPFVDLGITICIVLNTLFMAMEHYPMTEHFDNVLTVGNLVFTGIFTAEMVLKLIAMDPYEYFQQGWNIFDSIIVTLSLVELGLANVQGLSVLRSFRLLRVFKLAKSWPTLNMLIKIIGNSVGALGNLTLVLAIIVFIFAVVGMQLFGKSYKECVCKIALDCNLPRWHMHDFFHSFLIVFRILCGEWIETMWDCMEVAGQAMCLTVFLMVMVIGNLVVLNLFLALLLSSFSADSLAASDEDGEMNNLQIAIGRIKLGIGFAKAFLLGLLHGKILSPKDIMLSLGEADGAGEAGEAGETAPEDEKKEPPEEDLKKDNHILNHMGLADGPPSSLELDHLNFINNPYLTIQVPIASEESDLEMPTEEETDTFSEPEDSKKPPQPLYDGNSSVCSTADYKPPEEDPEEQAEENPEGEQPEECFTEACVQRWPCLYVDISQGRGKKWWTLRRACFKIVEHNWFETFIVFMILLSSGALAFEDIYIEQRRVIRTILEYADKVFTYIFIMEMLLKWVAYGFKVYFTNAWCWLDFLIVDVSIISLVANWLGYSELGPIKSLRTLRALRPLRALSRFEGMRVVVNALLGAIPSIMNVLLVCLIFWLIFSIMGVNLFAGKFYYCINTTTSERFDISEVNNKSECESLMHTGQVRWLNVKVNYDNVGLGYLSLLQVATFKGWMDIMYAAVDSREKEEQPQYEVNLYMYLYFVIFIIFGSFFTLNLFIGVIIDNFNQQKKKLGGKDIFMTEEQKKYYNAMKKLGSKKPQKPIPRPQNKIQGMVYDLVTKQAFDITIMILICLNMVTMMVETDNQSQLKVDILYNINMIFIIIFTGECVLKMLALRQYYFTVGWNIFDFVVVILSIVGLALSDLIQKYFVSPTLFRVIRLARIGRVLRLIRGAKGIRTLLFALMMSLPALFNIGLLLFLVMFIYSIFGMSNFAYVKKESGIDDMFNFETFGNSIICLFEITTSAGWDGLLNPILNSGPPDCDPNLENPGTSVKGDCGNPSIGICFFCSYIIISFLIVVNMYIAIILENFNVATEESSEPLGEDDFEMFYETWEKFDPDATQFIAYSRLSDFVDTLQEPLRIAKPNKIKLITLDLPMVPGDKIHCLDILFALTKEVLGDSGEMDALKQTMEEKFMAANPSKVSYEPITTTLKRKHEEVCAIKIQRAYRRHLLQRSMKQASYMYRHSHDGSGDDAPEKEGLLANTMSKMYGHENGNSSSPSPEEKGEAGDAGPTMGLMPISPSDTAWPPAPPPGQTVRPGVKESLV

Row | SMILES | IC50 (Human NaV1.4) [µM] | IC50 (Human NaV1.7) [µM] | IC50 (Rat NaV1.6) [µM] | concentration at 30 min [1, 3] [µM] | concentration at 30 min [1, 4] [µM] | Papp [2] | IC50 (Human NaV1.5) [µM] | percent decrease in the magnitude of the phrenic nerve signal (phrenic nerve) | concentration at 15 min [1, 3] [µM] | concentration at 15 min [1, 4] [µM] | Total [plasma] ([1]; 30 mg/kg, 22–30 min) [µM] | Unbound [plasma] ([1]; 30 mg/kg, 22–30 min) [µM] | concentration at 15 min [1, 5] [µM] | concentration at 15 min [1, 6] [µM] | concentration at 30 min [1, 5] [µM] | concentration at 30 min [1, 6] [µM] | inhibition at 0.041 µM (Rat NaV1.6; at 41 nM) [%]
1 | O=S(=O)(Nc1nccs1)c1cc(Cl)c(NCCCCNC[C@H]2CCCN2)cc1F [SSCI-1] | > 30 | 0.065 | 19 | 236 ± 110 | 15.8 ± 7.37 | 1.027 10e-6cm/s | > 30 | did not show any decrease |  |  |  |  |  |  |  |  | 
2 | C[C@H](c1cccc2c1CNCC2)n1c(=O)oc2cc(S(=O)(=O)Nc3ncns3)ccc21 [SSCI-3] | > 30 | 1 | 8.1 |  |  | 1.716 10e-6cm/s | > 30 | 74.2% | 32.1 ± 3.4 | 3.78 ± 0.4 | 43.549 ± 3.116 | 5.138 ± 0.36 |  |  |  |  | 
3 | N#Cc1cc(S(=O)(=O)Nc2cscn2)ccc1Oc1ccc(Cl)cc1-c1ccnn1C1CNC1 [SSCI-5] | > 30 | 2.1 | 7.4 |  |  | 1.351 10e-6cm/s | > 30 | 76.1% |  |  |  |  | 82.7 ± 15.2 | 10.6 ± 1.94 | 86.2 ± 42.1 | 11 ± 5.39 | 
4 | COc1ccc(CCC(c2cccc3c2CNCC3)n2c(=O)oc3cc(S(=O)(=O)Nc4ncns4)c(F)cc32)cc1 (centres unmarked) [SSCI-6] |  | 0.29 | > 0.041 |  |  |  | > 30 |  |  |  |  |  |  |  |  |  | 45
